Test in all cases: NCI tumour cell line growth inhibition, 48 h
Test [1] concerns CCRF-CEM leukemia.
For test [2], the system named is OVCAR-5 ovarian.
Test [3] relates to HCC-2998 colon.
Test [4] relates to SN12C renal.
Test [5] relates to HT29 colon.
Test [6] has as its system IGROV1 ovarian.
Test [7] deals with DU-145 prostate.
The subject of test [8] is COLO 205 colon.
Test [9] has as its system U251 CNS.
Test [10] has as its system UO-31 renal.
Test [11] deals with EKVX NSCLC.
For test [12], the system named is SK-MEL-28 melanoma.
Test [13] concerns SF-539 CNS.
Test [14] has as its system HCT-116 colon.
In test [15] the test system is HOP-62 NSCLC.
In test [16] the test system is SF-268 CNS.
Test [17] concerns NCI/ADR-RES ovarian.
In test [18] the test system is ACHN renal.
Test [19] concerns HOP-92 NSCLC.

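Dose response: 5 concentrations. Exposure: 48 h. Format: 96-well plates. Endpoint: linear interpolation; highest concentration if not reached. TGI: total growth inhibition.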

With `O=C1/C(=C/c2ccccc2)CCc2ccccc21`, the TGI amounted to 18.3 µM in test [1]; 33.4 µM in test [2]; 38.6 µM in test [3]; 56.1 µM in test [4]; 32.7 µM in [5]; 54.3 µM in test [6]. The TGI amounted to 37 µM in test [7]; 38.2 µM in test [8]; 30.4 µM in test [9]; 27.8 µM in [10]; 33.7 µM in test [11]; 38.3 µM in test [12]. Moreover, the TGI was determined as 31.3 µM in test [13]; 33.5 µM in [14]; 34.4 µM in test [15]; 37.4 µM in test [16]; 83.2 µM in test [17]; 32.4 µM in [18].
For `COc1ccc2c(c1)CCC1=C/C(=N\NC(N)=O)CCC12C` (configuration not stated), the TGI in test [1], in test [3], in test [4], in test [5], in test [6] and in [7] was above 10 µM in each case. Also, the TGI in [8], in test [19], in test [9], in test [12], in test [13] and in [14] was above 10 µM throughout. Further, the TGI in test [15], in test [16], in [17] and in [18] was above 10 µM in each case.
For `Cc1nc2ncn3c(c-2c1Cc1ccccc1)NC=C(O)N3`, the TGI in test [1] was above 100 µM; in test [2], above 100 µM; in [3], above 100 µM; in test [4], above 100 µM; in test [5], above 100 µM; in test [6], 65.7 µM. The TGI in [7], in test [8], in [9], in [10], in [11] and in test [12] was above 100 µM throughout. The TGI in [13], in test [14], in test [15], in test [16], in test [17] and in [18] was above 100 µM throughout.
As to `CCO/C(O)=C(/C(=N)N1CCCC1)C(=O)Nc1ccc(F)cc1`, the TGI in [1], in [2], in test [3], in test [4], in test [5] and in test [6] was above 100 µM in each case. For the same compound, the TGI in test [7], in [8], in test [9], in [11], in test [12] and in test [13] was above 100 µM each time. In addition, the TGI in [14], in test [15], in test [16], in [17] and in [18] was above 100 µM in each case.
In the case of `CC1(C)CCC[C@]2(C)[C@@H]1CC[C@@]13O[C@@H]1C1=C(CO)C(=O)OC1=C[C@@H]23`, the TGI in [2] worked out at 23.2 µM; in test [3], 46.7 µM; in test [4] it was 25.9 µM; in [5], 29.6 µM; in [6] it was 29.4 µM; in test [7] it was 39.7 µM. The TGI in test [8] is 30.6 µM; in test [19], 37 µM; in test [9] it was 67.4 µM; in test [10], 26 µM; in [11] it was 29.2 µM; in [12] it was 31.7 µM. Moreover, the TGI is 12.8 µM in [14]; 49.3 µM in test [15]; 54.7 µM in [16]; 37.7 µM in test [17]; above 100 µM in [18].
In the case of `Cc1cc(=O)oc2c(C)c3oc(CBr)c(Br)c3cc12`, the TGI in [1] was above 100 µM; in test [2], 80 µM; in [3] it was 70.7 µM; in [4], 58.7 µM; in test [5] it was above 100 µM; in test [6] it was 36.1 µM. The TGI in test [7] was above 100 µM; in test [8], above 100 µM; in test [9], above 100 µM; in test [10], 36.5 µM; in test [11], above 100 µM; in test [12], above 100 µM. Moreover, the TGI is above 100 µM in test [13]; 67.9 µM in test [14]; above 100 µM in test [15]; 78.6 µM in test [16]; 95.7 µM in test [17]; above 100 µM in test [18].
For the compound `CC1CN=C(NS(=O)(=O)c2cc(C(=O)Nc3ccc(F)cc3)c(Cl)cc2S)NN1` (configuration not stated), the TGI in test [1], in [2], in test [3], in test [4], in test [5] and in test [6] was above 100 µM in each case. In addition, the TGI in [7], in test [8], in test [9], in test [10], in test [11] and in test [12] was above 100 µM each time. The TGI in test [13], in test [14], in test [15], in test [16], in [17] and in [18] was above 100 µM throughout.
